Data published in ChEMBL document CHEMBL1201862, “PubChem BioAssay data set” (2004).
The source made the active and inactive calls.

Assays:
[1] = inhibitors of PGC1a acetylation in cells, dose response, cell-based, cherry-picked samples (AID 720514); format: functional;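 note: potency may reflect raised or lowered acetylation signal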
[2] = IOSE-T80 ovarian epithelial cell cytotoxicity, dose response, cytotoxicity control for PAX8 inhibitor project, plate reader, dry powder samples (AID 743045); format: functional, cell-based
Paired box protein Pax-8 = Paired box protein Pax-8 (Homo sapiens, UniProt Q06710); test: inhibitors of PAX8-driven TPO luciferase reporter, dose response, RMG-I cells, cherry-pick (AID 687027); format: functional, cell-based;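 note: luciferase reporter driven by Pax8 target thyroperoxidase promoter measured by SteadyGlo luminescence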
Sequence of Paired box protein Pax-8 (Q06710 whole entry): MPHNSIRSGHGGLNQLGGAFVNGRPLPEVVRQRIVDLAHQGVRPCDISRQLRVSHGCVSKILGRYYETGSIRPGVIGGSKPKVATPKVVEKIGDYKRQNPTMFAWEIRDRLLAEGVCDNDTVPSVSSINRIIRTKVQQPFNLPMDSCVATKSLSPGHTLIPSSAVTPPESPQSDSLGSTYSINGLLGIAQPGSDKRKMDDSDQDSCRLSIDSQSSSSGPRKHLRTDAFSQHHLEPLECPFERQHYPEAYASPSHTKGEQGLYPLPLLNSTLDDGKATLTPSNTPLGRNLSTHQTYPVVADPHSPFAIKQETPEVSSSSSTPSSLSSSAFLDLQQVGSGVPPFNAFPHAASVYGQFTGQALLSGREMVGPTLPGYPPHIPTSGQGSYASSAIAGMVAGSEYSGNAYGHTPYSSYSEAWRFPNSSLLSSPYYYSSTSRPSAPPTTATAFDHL

[3] = cytotoxicity in OVCAR8 ovarian cancer cells, dose response, PAX8 project, cell-based, plate reader, dry powder samples (AID 743197); format: functional; details: OVCAR-8
[4] = NIH:OVCAR-3 ovarian cancer cell cytotoxicity, dose response, PAX8 inhibitor project, plate reader, dry powder samples (AID 743044); format: functional, cell-based
[5] = IGROV1 ovarian cancer cell cytotoxicity, dose response, PAX8 inhibitor project, plate reader, dry powder samples (AID 743043); format: functional, cell-based; details: IGROV-1
[6] = target: T1, Long-chain-fatty-acid--AMP ligase FadD28 (Mycobacterium tuberculosis, UniProt P9WQ59); test: Fluorescence polarization aasay to screen for inhibitors that compete for the binding of FadD28 to a bisubstrate Measured in Biochemical System Using Plate Reader - 2147-01_Inhibitor_Dose_CherryPick_Activity.; format: functional, Mycobacterium tuberculosis H37Rv
T1 sequence (P9WQ59 whole entry): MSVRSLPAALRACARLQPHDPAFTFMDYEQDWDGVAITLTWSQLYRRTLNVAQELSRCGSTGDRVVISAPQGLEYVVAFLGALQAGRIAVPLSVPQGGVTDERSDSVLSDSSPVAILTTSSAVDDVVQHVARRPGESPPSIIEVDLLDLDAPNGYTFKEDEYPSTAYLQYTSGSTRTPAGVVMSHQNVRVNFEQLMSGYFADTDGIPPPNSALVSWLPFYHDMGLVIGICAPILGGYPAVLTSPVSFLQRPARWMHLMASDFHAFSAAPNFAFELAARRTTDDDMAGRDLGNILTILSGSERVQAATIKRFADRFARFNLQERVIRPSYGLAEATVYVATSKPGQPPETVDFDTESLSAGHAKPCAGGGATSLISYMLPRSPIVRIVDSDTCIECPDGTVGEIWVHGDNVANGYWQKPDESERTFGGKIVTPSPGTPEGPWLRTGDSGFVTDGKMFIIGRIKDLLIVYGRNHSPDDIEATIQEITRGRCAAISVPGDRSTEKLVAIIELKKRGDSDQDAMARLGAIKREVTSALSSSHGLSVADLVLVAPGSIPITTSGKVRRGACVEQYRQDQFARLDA

[7] = target: T2, Rac GTPase-activating protein 1 (Homo sapiens, UniProt Q9H0H5); test: MgcRacGAP GTPase-activating activity inhibitors, confirmation, biochemical, ADP Hunter fluorescence, primary and confirmatory (AID 624330); format: functional
T2 sequence (Q9H0H5 whole entry): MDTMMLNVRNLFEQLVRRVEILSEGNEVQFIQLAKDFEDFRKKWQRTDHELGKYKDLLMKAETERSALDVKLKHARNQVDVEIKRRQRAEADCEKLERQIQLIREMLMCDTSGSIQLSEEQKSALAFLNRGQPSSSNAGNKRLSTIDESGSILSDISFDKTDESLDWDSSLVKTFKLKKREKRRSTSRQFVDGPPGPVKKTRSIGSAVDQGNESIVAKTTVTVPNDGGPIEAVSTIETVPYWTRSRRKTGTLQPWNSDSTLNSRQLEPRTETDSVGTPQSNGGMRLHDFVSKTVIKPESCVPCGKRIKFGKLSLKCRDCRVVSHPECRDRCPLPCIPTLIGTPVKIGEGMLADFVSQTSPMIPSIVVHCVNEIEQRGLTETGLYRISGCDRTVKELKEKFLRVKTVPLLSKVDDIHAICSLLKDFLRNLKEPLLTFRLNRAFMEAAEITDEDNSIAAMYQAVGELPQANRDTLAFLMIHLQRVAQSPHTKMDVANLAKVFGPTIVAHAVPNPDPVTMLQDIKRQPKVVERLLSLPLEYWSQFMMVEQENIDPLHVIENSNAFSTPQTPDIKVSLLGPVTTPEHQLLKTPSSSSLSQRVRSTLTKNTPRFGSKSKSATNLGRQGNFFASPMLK

[8] = HeLa cell cytotoxicity, dose response, cytotoxicity control for MgcRacGAP inhibitor project (AID 624300); format: functional
[9] = ZM109 Env clade C HIV-1 fusion inhibitors, dose response, HeLa effector, CEM target cells, luciferase, cherry-pick (AID 652058); format: functional, cell-based
[10] = inhibitors of HIV Env-driven cell fusion, dose response, cherry-pick (AID 652057); format: functional, cell-based
[11] = HepG2 cell cytotoxicity, dose response, cytotoxicity control for Shn3 inhibitor project, CellTiter-Glo, cherry-picked (AID 624134); format: functional, cell-based
[12] = inhibitors of clade B AD8 Env fusion, dose response, cell-based, cherry-pick (AID 652062); format: functional;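 note: luciferase signal from cell-cell fusion driven by HIV-1 clade B AD8 Env; potency is for inhibitors of fusion seen as a drop in luminescence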
[13] = Shn3 3'UTR reporter inhibitors, dose response, cell-based, Clone20 osteoblasts, firefly luciferase, cherry-picked (AID 624132); format: functional;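 note: firefly luciferase luminescence from reporter carrying the Shn3 3'UTR in osteoblasts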
[14] = CEM21 lymphoblast cell cytotoxicity, dose response, cytotoxicity control for viral fusion inhibitor project, CellTiter-Glo luminescence, cherry-picked (AID 652042); format: functional, cell-based;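 note: potency for signal decrease meaning cytotoxicity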
Cytochrome P450 1A2 = target: T3, Cytochrome P450 1A2 (Homo sapiens, UniProt P05177);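 note: PubChem cytochrome P450 panel assay, CYP1A2 panel member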
T3 sequence (P05177 whole entry): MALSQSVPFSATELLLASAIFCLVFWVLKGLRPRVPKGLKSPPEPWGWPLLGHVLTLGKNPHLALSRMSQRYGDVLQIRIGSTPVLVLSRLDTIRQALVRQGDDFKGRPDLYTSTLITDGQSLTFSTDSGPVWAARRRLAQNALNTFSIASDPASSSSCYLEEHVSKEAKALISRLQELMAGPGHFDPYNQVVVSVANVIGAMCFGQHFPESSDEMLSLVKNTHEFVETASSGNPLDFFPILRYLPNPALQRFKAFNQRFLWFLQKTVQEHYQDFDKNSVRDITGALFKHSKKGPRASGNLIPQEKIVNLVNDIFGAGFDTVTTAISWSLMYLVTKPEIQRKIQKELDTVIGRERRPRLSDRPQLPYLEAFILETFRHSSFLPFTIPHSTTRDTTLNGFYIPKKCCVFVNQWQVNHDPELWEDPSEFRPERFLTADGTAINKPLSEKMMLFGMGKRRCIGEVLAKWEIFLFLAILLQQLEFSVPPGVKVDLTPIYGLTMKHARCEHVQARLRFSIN

[15] = control 3'UTR Renilla luciferase suppression, dose response, counter-screen for Shn3 inhibitor project, cell-based, Clone20-Shn3RL, cherry-picked (AID 624133); format: functional
[16] = off-target signal loss in HeLa-CEM21 co-culture – HeLa F-luc CTL cells, cherry-picked, counter-screen for HIV-1 Env fusion inhibitor project, dose response (AID 652040); format: functional, cell-based;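 note: potency for signal decrease marking cytotoxic or nonspecific inhibition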
HEK293 [17] = test: cells; details: Homo sapiens
HEK293 [18] = test: cells; details: Homo sapiens; remark: listed apart in the source
Streptococcus = test: Group A Streptococcus viability loss, dose response, counter-screen for streptokinase expression inhibitor project, luminescence, BacTiterGlo (AID 1915); format: functional, organism-based;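 note: potency for reduction of bacterial viability or growth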
Streptokinase A = target: T4, Streptokinase A (Streptococcus pyogenes serotype M1, UniProt P10520); test: S. pyogenes streptokinase expression inhibitors, potency, dose response, plasminogen activation absorbance, OD405 (AID 1914); format: functional, Streptococcus pyogenes M1 GAS;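 note: secreted streptokinase activity via plasminogen activation per viability signal from cell pellet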
T4 sequence (P10520 whole entry): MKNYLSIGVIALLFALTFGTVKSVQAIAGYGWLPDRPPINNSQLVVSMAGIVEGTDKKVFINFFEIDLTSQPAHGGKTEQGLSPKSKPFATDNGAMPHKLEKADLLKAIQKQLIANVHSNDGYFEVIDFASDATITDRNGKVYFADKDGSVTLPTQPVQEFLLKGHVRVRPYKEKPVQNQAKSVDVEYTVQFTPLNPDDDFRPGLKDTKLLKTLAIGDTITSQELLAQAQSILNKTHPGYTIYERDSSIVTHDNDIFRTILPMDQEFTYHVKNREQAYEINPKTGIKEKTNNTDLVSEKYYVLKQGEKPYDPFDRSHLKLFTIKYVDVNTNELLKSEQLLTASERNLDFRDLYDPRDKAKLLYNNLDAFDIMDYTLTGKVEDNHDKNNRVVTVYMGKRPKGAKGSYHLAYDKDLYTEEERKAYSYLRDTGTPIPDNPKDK

[19] = test system: Streptococcus sp. 'group A'; test: growth inhibition of control SK(-) GAS strain, dose response, counter-screen for streptokinase expression inhibitor project, luminescence, kanamycin, BacTiterGlo, confirmation (AID 1900); format: functional, organism-based
Hexokinase HKDC1 = target: T5, Hexokinase HKDC1 (Homo sapiens, UniProt Q2TB90); test: HKDC1 hexokinase inhibitors, dose response, biochemical, W721R variant (AID 504729); format: functional
T5 sequence (Q2TB90 whole entry): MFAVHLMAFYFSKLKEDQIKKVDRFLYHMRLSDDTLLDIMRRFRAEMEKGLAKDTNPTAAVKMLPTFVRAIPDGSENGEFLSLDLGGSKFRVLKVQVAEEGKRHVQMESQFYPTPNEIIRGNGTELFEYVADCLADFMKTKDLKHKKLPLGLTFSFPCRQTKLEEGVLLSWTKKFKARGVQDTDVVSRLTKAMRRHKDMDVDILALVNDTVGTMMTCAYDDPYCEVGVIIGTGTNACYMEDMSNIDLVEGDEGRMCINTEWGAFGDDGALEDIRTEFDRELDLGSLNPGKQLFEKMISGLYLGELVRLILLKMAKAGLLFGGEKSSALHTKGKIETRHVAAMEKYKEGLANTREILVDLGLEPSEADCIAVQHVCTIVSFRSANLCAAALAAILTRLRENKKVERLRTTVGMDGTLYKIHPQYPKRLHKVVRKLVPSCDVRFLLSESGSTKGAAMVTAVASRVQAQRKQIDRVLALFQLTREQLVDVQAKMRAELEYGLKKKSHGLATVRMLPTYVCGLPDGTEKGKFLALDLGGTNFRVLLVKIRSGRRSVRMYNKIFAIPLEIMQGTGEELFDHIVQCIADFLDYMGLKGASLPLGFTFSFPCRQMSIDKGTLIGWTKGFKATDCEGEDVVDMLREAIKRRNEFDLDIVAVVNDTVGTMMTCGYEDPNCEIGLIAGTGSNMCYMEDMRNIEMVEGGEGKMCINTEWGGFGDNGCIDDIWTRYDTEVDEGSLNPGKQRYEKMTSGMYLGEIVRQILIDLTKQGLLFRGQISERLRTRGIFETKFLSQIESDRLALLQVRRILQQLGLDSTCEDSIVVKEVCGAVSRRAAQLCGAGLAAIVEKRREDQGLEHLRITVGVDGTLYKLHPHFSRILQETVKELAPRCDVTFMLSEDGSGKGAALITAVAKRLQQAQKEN

Vero = Vero cell cytotoxicity, cytotoxicity control for flavivirus capping enzyme inhibitors (AID 588742); format: functional; details: Chlorocebus sabaeus
Large T antigen = Large T antigen (Simian virus 40, UniProt P03070); format: functional, Betapolyomavirus macacae;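 note: Confirmatory-stage PubChem screen for compounds that inhibit SV40 T antigen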
Sequence of Large T antigen (P03070 whole entry): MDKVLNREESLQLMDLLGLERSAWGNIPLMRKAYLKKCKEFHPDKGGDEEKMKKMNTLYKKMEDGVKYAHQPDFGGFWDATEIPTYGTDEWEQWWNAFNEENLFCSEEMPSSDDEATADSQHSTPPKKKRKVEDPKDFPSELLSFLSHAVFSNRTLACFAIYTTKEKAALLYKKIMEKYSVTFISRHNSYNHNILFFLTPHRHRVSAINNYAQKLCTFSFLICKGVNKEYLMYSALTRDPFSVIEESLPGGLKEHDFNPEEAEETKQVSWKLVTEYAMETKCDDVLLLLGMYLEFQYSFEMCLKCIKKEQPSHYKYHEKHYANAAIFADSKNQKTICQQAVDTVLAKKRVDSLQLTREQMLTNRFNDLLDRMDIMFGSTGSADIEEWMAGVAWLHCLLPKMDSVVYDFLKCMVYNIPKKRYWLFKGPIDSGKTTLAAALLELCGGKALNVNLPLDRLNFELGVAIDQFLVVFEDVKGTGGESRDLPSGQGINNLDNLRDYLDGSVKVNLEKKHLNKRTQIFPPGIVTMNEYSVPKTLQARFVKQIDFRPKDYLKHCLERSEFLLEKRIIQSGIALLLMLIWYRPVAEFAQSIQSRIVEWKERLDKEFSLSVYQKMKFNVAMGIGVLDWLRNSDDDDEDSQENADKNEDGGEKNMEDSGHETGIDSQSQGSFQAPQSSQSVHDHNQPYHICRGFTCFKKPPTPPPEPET

[20] = target: T6, Tyrosyl-DNA phosphodiesterase 2 (Homo sapiens, UniProt O95551); test: human TDP2 enzyme inhibitors, dose response, biochemical, epi absorbance, IC50 (AID 743297)
T6 sequence (O95551 whole entry): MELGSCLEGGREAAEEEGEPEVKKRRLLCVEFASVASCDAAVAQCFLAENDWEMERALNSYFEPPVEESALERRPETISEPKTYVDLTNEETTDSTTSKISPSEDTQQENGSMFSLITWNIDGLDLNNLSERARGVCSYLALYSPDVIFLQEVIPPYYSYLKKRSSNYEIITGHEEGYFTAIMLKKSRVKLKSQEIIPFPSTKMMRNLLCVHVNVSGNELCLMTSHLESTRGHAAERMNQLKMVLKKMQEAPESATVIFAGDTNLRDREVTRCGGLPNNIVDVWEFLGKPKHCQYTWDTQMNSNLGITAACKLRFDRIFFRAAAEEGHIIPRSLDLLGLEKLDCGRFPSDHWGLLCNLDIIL

Genome polyprotein = Genome polyprotein (dengue virus type 2, UniProt P29990); test: Dengue-2 NS5 methyltransferase inhibitors, primary screen, biochemical, confirmation dose response (AID 588689); format: functional
Sequence of Genome polyprotein (P29990 2492-3391 limits assumed): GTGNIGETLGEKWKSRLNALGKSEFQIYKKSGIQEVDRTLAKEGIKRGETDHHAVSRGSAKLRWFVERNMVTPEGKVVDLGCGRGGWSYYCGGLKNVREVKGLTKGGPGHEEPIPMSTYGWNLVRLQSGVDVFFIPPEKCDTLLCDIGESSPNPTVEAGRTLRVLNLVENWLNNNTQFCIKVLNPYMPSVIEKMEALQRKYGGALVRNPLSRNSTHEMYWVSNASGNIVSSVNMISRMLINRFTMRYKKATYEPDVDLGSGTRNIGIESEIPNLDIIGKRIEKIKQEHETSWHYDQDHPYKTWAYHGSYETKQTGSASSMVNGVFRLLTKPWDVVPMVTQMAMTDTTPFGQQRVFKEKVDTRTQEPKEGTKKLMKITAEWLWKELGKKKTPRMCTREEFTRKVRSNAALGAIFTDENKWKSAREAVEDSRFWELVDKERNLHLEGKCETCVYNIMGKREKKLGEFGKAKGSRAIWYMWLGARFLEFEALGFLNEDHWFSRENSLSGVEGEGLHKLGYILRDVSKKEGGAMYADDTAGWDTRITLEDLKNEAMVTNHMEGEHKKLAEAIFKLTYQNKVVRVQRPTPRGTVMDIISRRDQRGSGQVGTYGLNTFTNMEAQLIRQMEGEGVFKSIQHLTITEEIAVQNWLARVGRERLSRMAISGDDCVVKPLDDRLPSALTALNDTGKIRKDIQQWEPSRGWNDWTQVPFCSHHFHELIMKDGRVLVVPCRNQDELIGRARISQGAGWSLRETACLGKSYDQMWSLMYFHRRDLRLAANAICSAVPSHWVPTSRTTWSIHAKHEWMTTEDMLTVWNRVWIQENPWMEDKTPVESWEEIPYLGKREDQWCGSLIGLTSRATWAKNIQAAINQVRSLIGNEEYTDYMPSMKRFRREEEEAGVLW

O=C(Nc1ccc(C(F)(F)F)cc1)N1C[C@@H]2N[C@H](C1)[C@H]2c1ccc(-c2ccccc2)cc1
active: AC50 [1] 5.12 µM | AC50 [2] 49.8 µM | AC50 (Paired box protein Pax-8) 8.55 µM | AC50 [3] 41 µM | AC50 [4] 17.7 µM | AC50 [5] 27.2 µM

COc1cc(/C=N/NC(=O)CN(Cc2ccccc2)S(=O)(=O)c2ccc3c(c2)OCCO3)ccc1O
inactive: AC50 [6] > 100 µM
active: IC50 [7] 74.6 µM | CC50 [8] 100 µM

O=C(Nc1ccc(Oc2ccccc2)cc1)C1CCN(c2c3c(nc4ncnn24)CCC3)CC1
inconclusive: AC50 (Cytochrome P450 1A2) 15.8 µM
active: AC50 [9] 9.59 µM | AC50 [10] 3.83 µM | AC50 [11] 7.3 µM | AC50 [12] 4.29 µM | AC50 [13] 5.64 µM | AC50 [14] 42.7 µM | AC50 [15] 10.5 µM
inactive: AC50 [16] > 32 µM

CCC(C)(C)NC(=O)C(NS(=O)(=O)c1cccs1)c1ccccc1 (stereo not drawn)
inactive: EC50 (HEK293 [17]) > 59.6 µM | EC50 (HEK293 [18]) > 59.6 µM
active: AC50 [9] 4.71 µM | AC50 [10] 4.25 µM | AC50 [12] 5.84 µM | AC50 [16] 4.24 µM

Cc1cccc(NC(=O)c2cc3n(n2)C(C(F)(F)F)CC(c2ccc4c(c2)OCO4)N3)c1 (stereo not drawn)
active: AC50 [9] 7.75 µM | AC50 [10] 7.49 µM | AC50 [12] 17 µM | AC50 [14] 61 µM | EC50 (Streptococcus) 139 µM | EC50 (Streptokinase A) 28.7 µM | EC50 [19] 12.9 µM | AC50 [16] 4.41 µM

Cc1cccc(-n2c3nc(=O)[nH]c(=O)c-3cc3cc([N+](=O)[O-])ccc32)c1
active: IC50 (Hexokinase HKDC1) 10.4 µM | CC50 (Vero) 24.8 µM | IC50 (Large T antigen) > 100 µM | IC50 (Genome polyprotein) 32.7 µM
inactive: IC50 [20] > 128 µM

C[C@@H]1CCCCO[C@H](CN(C)C(=O)NC2CCCCC2)[C@@H](C)CN([C@@H](C)CO)C(=O)c2cc(NC(=O)NC3CCCCC3)ccc2O1
active: AC50 [1] 26 µM
